# Tested on: MV-4-11 cells
# Assay: Gene expression microarray analysis (Affymetrix PrimeView) and GSEA
# Format: cell-based, human
# Set-up: RFU PODN (11730768_x_at) / Fold change /veh PODN (11730768_x_at) / RFU LINC00158 (11744669_a_at) / Fold change /veh LINC00158 (11744669_a_at) / RFU DUSP10 (11751237_a_at) / Fold change /veh DUSP10 (11751237_a_at) / RFU ID3 (11757404_x_at) / Fold change /veh ID3 (11757404_x_at) / RFU PLEKHG5 (11737974_s_at) / Fold change /veh PLEKHG5 (11737974_s_at) / RFU LRRC4B (11730491_at) / Fold change /veh LRRC4B (11730491_at) / RFU GIMAP4 (11747438_a_at) / Fold change /veh GIMAP4 (11747438_a_at) / RFU KRT8 (11758183_x_at) / Fold change /veh KRT8 (11758183_x_at) / RFU CNN1 (11734310_a_at) / Fold change /veh CNN1 (11734310_a_at) / RFU VPS37D (11726825_at) / Fold change /veh VPS37D (11726825_at) / RFU C10orf10 (11716522_x_at) / Fold change /veh C10orf10 (11716522_x_at) / RFU KIR2DL2 /// KIR2DL4 /// KIR2DL5A /// KIR2DL5B /// KIR2DS1 /// KIR2DS2 /// KIR2DS3 /// KIR2DS4 /// KIR3DL3 /// KIR3DL3 /// KIR3DS1 (11738374_at) / Fold change /veh KIR2DL2 /// KIR2DL4 /// KIR2DL5A /// KIR2DL5B /// KIR2DS1 /// KIR2DS2 /// KIR2DS3 /// KIR2DS4 /// KIR3DL3 /// KIR3DL3 /// KIR3DS1 (11738374_at) / RFU C1QL1 (11718748_at) / Fold change /veh C1QL1 (11718748_at) / RFU TMPRSS4 (11747572_a_at) / Fold change /veh TMPRSS4 (11747572_a_at) / RFU HAMP (11756126_x_at) / Fold change /veh HAMP (11756126_x_at) / RFU RNFT2 (11725882_a_at) / Fold change /veh RNFT2 (11725882_a_at) / RFU NR4A2 (11747474_a_at) / Fold change /veh NR4A2 (11747474_a_at) / RFU ABCC12 (11746883_a_at) / Fold change /veh ABCC12 (11746883_a_at) / RFU TMEM136 (11760407_x_at) / Fold change /veh TMEM136 (11760407_x_at) / RFU CLDN22 /// WWC2 (11732394_at) / Fold change /veh CLDN22 /// WWC2 (11732394_at) / RFU HLA-DPB1 (11760878_x_at) / Fold change /veh HLA-DPB1 (11760878_x_at) / RFU SPINT1 (11716480_a_at) / Fold change /veh SPINT1 (11716480_a_at) / RFU GAP43 (11754022_s_at) / Fold change /veh GAP43 (11754022_s_at) / RFU A4GNT (11735810_at) / Fold change /veh A4GNT (11735810_at) / RFU PRB3 (11715151_x_at) / Fold change /veh PRB3 (11715151_x_at) / RFU TUBB4B (11761932_at) / Fold change /veh TUBB4B (11761932_at) / RFU CAPN14 (11732068_a_at) / Fold change /veh CAPN14 (11732068_a_at) / RFU TMCC2 (11721928_a_at) / Fold change /veh TMCC2 (11721928_a_at) / RFU IRGQ (11745062_a_at) / Fold change /veh IRGQ (11745062_a_at) / RFU FAM174B (11720279_a_at) / Fold change /veh FAM174B (11720279_a_at) / RFU TMPRSS4 (11748680_a_at) / Fold change /veh TMPRSS4 (11748680_a_at) / RFU FAM212B (11763350_a_at) / Fold change /veh FAM212B (11763350_a_at) / RFU PLEKHG5 (11743358_a_at) / Fold change /veh PLEKHG5 (11743358_a_at) / RFU ZSCAN30 (11745921_a_at) / Fold change /veh ZSCAN30 (11745921_a_at) / RFU CMKLR1 (11741424_a_at) / Fold change /veh CMKLR1 (11741424_a_at) / RFU LOC101060620 /// MAPK8IP1 (11723275_at) / Fold change /veh LOC101060620 /// MAPK8IP1 (11723275_at) / RFU SPTSSB (11747773_x_at) / Fold change /veh SPTSSB (11747773_x_at) / RFU PRSS12 (11739890_at) / Fold change /veh PRSS12 (11739890_at) / RFU BIN1 (11741810_x_at) / Fold change /veh BIN1 (11741810_x_at) / RFU WNT11 (11732464_a_at) / Fold change /veh WNT11 (11732464_a_at) / RFU C10orf10 (11716521_a_at) / Fold change /veh C10orf10 (11716521_a_at) / RFU C5orf56 (11738089_at) / Fold change /veh C5orf56 (11738089_at) / RFU CYB561 (11721691_x_at) / Fold change /veh CYB561 (11721691_x_at) / RFU ANKRD19P (11752326_a_at) / Fold change /veh ANKRD19P (11752326_a_at) / RFU OR2T12 /// OR2T33 /// OR2T8 (11738714_s_at) / Fold change /veh OR2T12 /// OR2T33 /// OR2T8 (11738714_s_at) / RFU VCAN (11748164_a_at) / Fold change /veh VCAN (11748164_a_at) / RFU JSRP1 (11732532_at) / Fold change /veh JSRP1 (11732532_at) / RFU KRTAP10-11 (11738290_x_at) / Fold change /veh KRTAP10-11 (11738290_x_at) / RFU MYO3A (11730013_a_at) / Fold change /veh MYO3A (11730013_a_at) / RFU EBF3 (11725865_a_at) / Fold change /veh EBF3 (11725865_a_at) / RFU CAMK2N1 (11719241_x_at) / Fold change /veh CAMK2N1 (11719241_x_at) / RFU C5orf56 (11738088_a_at) / Fold change /veh C5orf56 (11738088_a_at) / RFU OLFML3 (11715873_a_at) / Fold change /veh OLFML3 (11715873_a_at) / RFU LOC100653217 /// NTM (11731650_a_at) / Fold change /veh LOC100653217 /// NTM (11731650_a_at) / RFU MAPK11 (11762145_a_at) / Fold change /veh MAPK11 (11762145_a_at) / RFU FIZ1 (11724087_x_at) / Fold change /veh FIZ1 (11724087_x_at) / RFU OASL (11726364_x_at) / Fold change /veh OASL (11726364_x_at) / RFU SOX15 (11748057_x_at) / Fold change /veh SOX15 (11748057_x_at) / RFU CD79A (11719716_a_at) / Fold change /veh CD79A (11719716_a_at) / RFU HIST1H1D (11736915_at) / Fold change /veh HIST1H1D (11736915_at) / RFU CASKIN2 (11723855_a_at) / Fold change /veh CASKIN2 (11723855_a_at) / RFU LOC730098 (11760151_x_at) / Fold change /veh LOC730098 (11760151_x_at) / RFU OR4N2 (11742367_at) / Fold change /veh OR4N2 (11742367_at) / RFU PRRT2 (11749266_a_at) / Fold change /veh PRRT2 (11749266_a_at) / RFU SNX32 (11753110_a_at) / Fold change /veh SNX32 (11753110_a_at) / RFU CDHR5 (11726645_a_at) / Fold change /veh CDHR5 (11726645_a_at) / RFU RCAN1 (11760418_a_at) / Fold change /veh RCAN1 (11760418_a_at) / RFU FAM167A (11723789_a_at) / Fold change /veh FAM167A (11723789_a_at) / RFU FAM26E (11764081_at) / Fold change /veh FAM26E (11764081_at) / RFU ISYNA1 (11749810_s_at) / Fold change /veh ISYNA1 (11749810_s_at) / RFU ACY1 (11761880_at) / Fold change /veh ACY1 (11761880_at) / RFU 11764098_at / Fold change /veh 11764098_at / RFU SAMD14 (11745864_x_at) / Fold change /veh SAMD14 (11745864_x_at) / RFU NPB (11741838_a_at) / Fold change /veh NPB (11741838_a_at) / RFU TMPRSS6 (11731388_a_at) / Fold change /veh TMPRSS6 (11731388_a_at) / RFU KRTAP10-2 (11738614_at) / Fold change /veh KRTAP10-2 (11738614_at) / RFU ARHGAP8 /// PRR5-ARHGAP8 (11727945_x_at) / Fold change /veh ARHGAP8 /// PRR5-ARHGAP8 (11727945_x_at) / RFU KRTAP5-7 /// NADSYN1 (11734609_at) / Fold change /veh KRTAP5-7 /// NADSYN1 (11734609_at) / RFU RASL12 (11751679_a_at) / Fold change /veh RASL12 (11751679_a_at) / RFU CDKN2B (11736163_a_at) / Fold change /veh CDKN2B (11736163_a_at) / RFU PRF1 (11729649_at) / Fold change /veh PRF1 (11729649_at) / RFU, ZNF638 /// ZNF638-IT1 / Fold change vs veh, ZNF638 /// ZNF638-IT1 / RFU, PANK3 / Fold change vs veh, PANK3 / RFU, SH3YL1 / Fold change vs veh, SH3YL1 / RFU, ZEB2 / Fold change vs veh, ZEB2 / RFU, NRIP1 / Fold change vs veh, NRIP1 / RFU, PTTG1IP / Fold change vs veh, PTTG1IP / RFU, CAPN2 / Fold change vs veh, CAPN2 / RFU, MED14 / Fold change vs veh, MED14 / RFU, SNORA58 / Fold change vs veh, SNORA58 / RFU, C1orf63 / Fold change vs veh, C1orf63 / RFU, LRRFIP1 / Fold change vs veh, LRRFIP1 / RFU, NDUFAF7 / Fold change vs veh, NDUFAF7 / RFU, SLC12A2 / Fold change vs veh, SLC12A2 / RFU, IBTK / Fold change vs veh, IBTK / RFU, ESF1 / Fold change vs veh, ESF1 / Fold change vs veh, TMEM50B / RFU, TAOK1 / Fold change vs veh, TAOK1 / RFU, ACBD3 / Fold change vs veh, ACBD3 / RFU, TMA16 / Fold change vs veh, TMA16 / RFU, RWDD3 / Fold change vs veh, RWDD3 / RFU, BCAT1 / Fold change vs veh, BCAT1 / RFU, EDEM3 / Fold change vs veh, EDEM3 / RFU, TMEM33 / Fold change vs veh, TMEM33 / RFU, WDR75 / Fold change vs veh, WDR75 / RFU, AHCTF1 / Fold change vs veh, AHCTF1 / RFU, TFRC / Fold change vs veh, TFRC / RFU, ZDHHC17 / Fold change vs veh, ZDHHC17 / RFU, NOM1 / Fold change vs veh, NOM1 / RFU, ARL8B / Fold change vs veh, ARL8B / RFU, ZBTB11 / Fold change vs veh, ZBTB11 / RFU, TAMM41 / Fold change vs veh, TAMM41 / RFU, KIAA1704 /// LOC100996395 / Fold change vs veh, KIAA1704 /// LOC100996395 / RFU, ING1 / Fold change vs veh, ING1 / RFU, TRMT61B / Fold change vs veh, TRMT61B / RFU, FUBP3 / Fold change vs veh, FUBP3 / RFU, TP53 / Fold change vs veh, TP53 / RFU, TNKS2 / Fold change vs veh, TNKS2 / RFU, ZFP14 / Fold change vs veh, ZFP14 / RFU, ACTR2 / Fold change vs veh, ACTR2 / RFU, PPP3R1 / Fold change vs veh, PPP3R1 / RFU, PIK3R1 / Fold change vs veh, PIK3R1 / RFU, HNRNPA1 / Fold change vs veh, HNRNPA1 / RFU, RNF170 / Fold change vs veh, RNF170 / RFU, ZNF28 / Fold change vs veh, ZNF28 / RFU, RNGTT / Fold change vs veh, RNGTT / RFU, OGT / Fold change vs veh, OGT / RFU, BRD1 / Fold change vs veh, BRD1 / RFU, MARS / Fold change vs veh, MARS / RFU, ZNF655 / Fold change vs veh, ZNF655 / RFU, FAHD1 / Fold change vs veh, FAHD1 / RFU, BDP1 / Fold change vs veh, BDP1 / RFU, LRRCC1 / Fold change vs veh, LRRCC1 / RFU, ARID1A / Fold change vs veh, ARID1A / RFU, ZNF146 / Fold change vs veh, ZNF146 / RFU, ZNF330 / Fold change vs veh, ZNF330 / RFU, GPN3 / Fold change vs veh, GPN3 / RFU, C9orf123 / Fold change vs veh, C9orf123 / RFU, N4BP2L2 / Fold change vs veh, N4BP2L2 / RFU, ARFIP1 / Fold change vs veh, ARFIP1 / RFU, FAM179B / Fold change vs veh, FAM179B / RFU, BCL10 / Fold change vs veh, BCL10 / RFU, UHRF1BP1L / Fold change vs veh, UHRF1BP1L / RFU, BET1 / Fold change vs veh, BET1 / RFU, CNOT2 / Fold change vs veh, CNOT2 / RFU, ZNF268 / Fold change vs veh, ZNF268 / Fold change vs veh, ZNF507 / RFU, DGCR2 / Fold change vs veh, DGCR2 / RFU, WDSUB1 / Fold change vs veh, WDSUB1 / Fold change vs veh, HSP90B1 /// MIR3652 / RFU, ADSS / Fold change vs veh, ADSS / RFU, GK / Fold change vs veh, GK / RFU, ZNF148 / Fold change vs veh, ZNF148 / RFU, TAF9 / Fold change vs veh, TAF9 / RFU, SLC1A5 / Fold change vs veh, SLC1A5 / RFU, SLMO2 / Fold change vs veh, SLMO2 / RFU, ABCC4 / Fold change vs veh, ABCC4 / RFU, LOC101060439 /// RAP1B / Fold change vs veh, LOC101060439 /// RAP1B / RFU, RFX7 / Fold change vs veh, RFX7 / RFU, GTPBP10 / Fold change vs veh, GTPBP10 / RFU, CNEP1R1 / Fold change vs veh, CNEP1R1 / RFU, BIVM-ERCC5 /// ERCC5 / Fold change vs veh, BIVM-ERCC5 /// ERCC5 / RFU, ILF3 / Fold change vs veh, ILF3 / RFU 11762660_at / Fold change /veh 11762660_at / RFU VCAN (11757783_s_at) / Fold change /veh VCAN (11757783_s_at) / RFU DDX43 (11728927_at) / Fold change /veh DDX43 (11728927_at) / RFU KRT8 (11758188_x_at) / Fold change /veh KRT8 (11758188_x_at) / RFU NKD1 (11759106_at) / Fold change /veh NKD1 (11759106_at) / RFU SRD5A1 (11742802_a_at) / Fold change /veh SRD5A1 (11742802_a_at) / RFU TPSAB1 /// TPSB2 (11721975_s_at) / Fold change /veh TPSAB1 /// TPSB2 (11721975_s_at) / RFU GSTM3 (11746129_a_at) / Fold change /veh GSTM3 (11746129_a_at) / RFU IL23R (11737362_x_at) / Fold change /veh IL23R (11737362_x_at) / RFU TMEM51 (11727254_a_at) / Fold change /veh TMEM51 (11727254_a_at) / RFU PIWIL2 (11732686_x_at) / Fold change /veh PIWIL2 (11732686_x_at) / RFU ORM1 (11744905_x_at) / Fold change /veh ORM1 (11744905_x_at) / RFU CCDC152 (11743942_at) / Fold change /veh CCDC152 (11743942_at) / RFU ECM1 (11717891_a_at) / Fold change /veh ECM1 (11717891_a_at) / RFU IL23R (11748794_a_at) / Fold change /veh IL23R (11748794_a_at) / RFU TNFAIP8L3 (11732012_x_at) / Fold change /veh TNFAIP8L3 (11732012_x_at) / RFU MBOAT4 (11741988_at) / Fold change /veh MBOAT4 (11741988_at) / RFU 11764193_at / Fold change /veh 11764193_at / RFU TMEM53 (11763286_at) / Fold change /veh TMEM53 (11763286_at) / RFU MAGEB2 (11727129_at) / Fold change /veh MAGEB2 (11727129_at) / RFU TMEM200A (11744735_a_at) / Fold change /veh TMEM200A (11744735_a_at) / RFU CCDC152 (11751479_a_at) / Fold change /veh CCDC152 (11751479_a_at) / RFU FAM211A (11726209_a_at) / Fold change /veh FAM211A (11726209_a_at) / RFU RGS16 (11746705_a_at) / Fold change /veh RGS16 (11746705_a_at) / RFU VCAN (11755009_s_at) / Fold change /veh VCAN (11755009_s_at) / RFU RHOB (11743442_s_at) / Fold change /veh RHOB (11743442_s_at) / RFU RGS16 (11720943_a_at) / Fold change /veh RGS16 (11720943_a_at) / RFU RGS16 (11720944_at) / Fold change /veh RGS16 (11720944_at) / RFU, VPS4B / Fold change vs veh, VPS4B / RFU, CREB1 / Fold change vs veh, CREB1 / RFU, DNAJC13 / Fold change vs veh, DNAJC13 / RFU, GNAQ / Fold change vs veh, GNAQ / RFU, CDK5R1 / Fold change vs veh, CDK5R1 / RFU, ZRANB3 / Fold change vs veh, ZRANB3 / RFU, CUL4A / Fold change vs veh, CUL4A / RFU, CCNY / Fold change vs veh, CCNY / RFU, UFL1 / Fold change vs veh, UFL1 / RFU, COG3 / Fold change vs veh, COG3 / RFU, DIAPH2 / Fold change vs veh, DIAPH2 / RFU, SKA2 / Fold change vs veh, SKA2 / RFU, AFF3 / Fold change vs veh, AFF3 / RFU, LMF1 / Fold change vs veh, LMF1 / RFU, IPO11 / Fold change vs veh, IPO11 / RFU, DFFB / Fold change vs veh, DFFB / RFU, FOXP1 / Fold change vs veh, FOXP1 / RFU, CARD8 / Fold change vs veh, CARD8 / RFU, STRN3 / Fold change vs veh, STRN3 / RFU, ADK / Fold change vs veh, ADK / RFU, RASSF2 / Fold change vs veh, RASSF2 / RFU, WIPF1 / Fold change vs veh, WIPF1 / RFU, LARP1B / Fold change vs veh, LARP1B / RFU, RASA1 / Fold change vs veh, RASA1 / RFU, RB1 / Fold change vs veh, RB1 / RFU, PPFIA1 / Fold change vs veh, PPFIA1 / RFU, MAT2A / Fold change vs veh, MAT2A / RFU, CCT5 / Fold change vs veh, CCT5 / RFU, WDR92 / Fold change vs veh, WDR92 / RFU, CUX1 / Fold change vs veh, CUX1 / RFU, TTC7A / Fold change vs veh, TTC7A / RFU, TMEM135 / Fold change vs veh, TMEM135 / RFU, DEPTOR / Fold change vs veh, DEPTOR / RFU, CPM / Fold change vs veh, CPM / RFU, DNAJB6 / Fold change vs veh, DNAJB6 / RFU, CACNA2D3 / Fold change vs veh, CACNA2D3 / RFU, DTX4 / Fold change vs veh, DTX4 / RFU, TFCP2 / Fold change vs veh, TFCP2 / RFU, GMCL1 /// GMCL1P1 / Fold change vs veh, GMCL1 /// GMCL1P1 / RFU, AEBP2 / Fold change vs veh, AEBP2 / RFU, SNHG1 /// SNORD22 /// SNORD25 /// SNORD26 /// SNORD27 /// SNORD28 /// SNORD29 /// SNORD31 / Fold change vs veh, SNHG1 /// SNORD22 /// SNORD25 /// SNORD26 /// SNORD27 /// SNORD28 /// SNORD29 /// SNORD31 / Fold change (Aza/veh), C12orf56 (ProbeSet 11735607_a_at) / Fold change (ACY-1035/veh), C12orf56 (ProbeSet 11735607_a_at) / Fold change (Aza/veh), FGFR1OP (ProbeSet 11751329_s_at) / Fold change (ACY-1035/veh), FGFR1OP (ProbeSet 11751329_s_at) / Fold change (Aza/veh), VPS36 (ProbeSet 11739960_a_at) / Fold change (ACY-1035/veh), VPS36 (ProbeSet 11739960_a_at) / RFU SYPL1 (11715823_x_at) / Fold change /veh SYPL1 (11715823_x_at) / RFU IGFBP7 (11715501_s_at) / Fold change /veh IGFBP7 (11715501_s_at) / RFU REEP3 (11722064_at) / Fold change /veh REEP3 (11722064_at) / RFU IGLL1 (11728026_x_at) / Fold change /veh IGLL1 (11728026_x_at): dose or concentration left out as unconfirmed
# Settings: MV-4-11 cells, 48 hours
smiles,measurement,value
Nc1ncn([C@@H]2O[C@H](CO)[C@@H](O)[C@H]2O)c(=O)n1 [azacitidine],Fold change /veh ANKRD19P (11752326_a_at),1.10

# — paper PMC5218480 (PLoS ONE, 2017)
